Tested on: lyso-Gb3
Test: Plasma lyso-Gb3 in Fabry patients on migalastat
Assay type: in vivo, human
Description: In further embodiments, the method further comprises measuring lyso-Gb3 in one or more plasma samples from the patient. A first baseline lyso-Gb3 level may be determined during the first time period. As used herein, “baseline lyso-Gb3 level” refers to the lowest plasma lyso-Gb3 value measured during a given time period or dosing regimen. […] Thus, in further embodiments, the administration of the second time period is begun after an increase (e.g., of at least about 20, 25, 30, 33, 35, 40, 45 or 50% and/or 1, 1.25, 1.5, 1.75, 2, 2.25, 2.5 or 3 nM) above the first baseline lyso-Gb3 level is measured. […] Lyso-Gb3 levels may be measured at varying frequencies (e.g., about once every 2, 3, 4 or 5 months). It is thought that it takes about 3 months for a baseline lyso-Gb3 level to be established once a dosing regimen has been started.
Lyso-Gb3 can be measured via methods known in the art using validated assays. […] For example, one process of measuring plasma lyso-Gb3 is described in Hamler, Rick, et al. “Accurate quantitation of plasma globotriaosylsphingosine (lyso-Gb3) in normal individuals and Fabry disease patients by liquid chromatography—tandem mass spectrometry (LC—MS/MS).” Molecular Genetics and Metabolism, Volume 114.2 (2015):S51. In one or more embodiments, lyso-Gb3 is measured in samples from a patient's urine.

Work on OC[C@H]1NC[C@H](O)[C@@H](O)[C@H]1O [migalastat, (2R,3S,4R,55)-2-(hydroxymethyl) piperdine-3,4,5-triol] yielded a Lyso-Gb3 (Fabry patient P1, 18 Month Visit) of 11.1 nM/L, a Lyso-Gb3 (Fabry patient P1, 24 Month Visit) of 13.1 nM/L and a Lyso-Gb3 (Fabry patient P1, 30 Month Visit) of 10.8 nM/L. For the same compound, the Lyso-Gb3 (Fabry patient P1, 34-Month Visit) was 9.3 nM/L, the “change of plasma lyso-Gb3 from previous visits” value (Fabry patient P1, decline in renal function to eGFR of 32 mL/min/1.73 m^2) was “has not shown clinically relevant changes” and the Lyso-Gb3 (Fabry patient P3, August 2014, QOD) was 13.10 nmol/L. It also gave a Lyso-Gb3 (Fabry patient P3, August 2017, Q4D) of 9.85 nmol/L, a Lyso-Gb3 (Fabry patient P3, February 2014, QOD) of 11.10 nmol/L and a Lyso-Gb3 (Fabry patient P3, February 2015, QOD) of 10.80 nmol/L. For the same compound, the Lyso-Gb3 (Fabry patient P3, February 2018, Q7D) was 7.04 nmol/L, the Lyso-Gb3 (Fabry patient P3, January 2018, Q7D) was 9.04 nmol/L and the Lyso-Gb3 (Fabry patient P3, June 2015, QOD) was 9.30 nmol/L. It also gave a Lyso-Gb3 (Fabry patient P3, March 2011, QOD) of 24.15 nmol/L, a Lyso-Gb3 (Fabry patient P3, March 2016, QOD) of 8.46 nmol/L and a Lyso-Gb3 (Fabry patient P3, May 2017, Q4D) of 13.10 nmol/L. It also gave a Lyso-Gb3 (Fabry patient P3, November 2017, Q4D) of 8.55 nmol/L, a Lyso-Gb3 (Fabry patient P3, September 2010, QOD) of 27.30 nmol/L and a Lyso-Gb3 (Fabry patient P3, September 2015, QOD) of 7.36 nmol/L.
